For assay [1], the target named is T1, PKC theta (Homo sapiens, UniProt Q04759).
T1 construct: purchased Upstate Biotechnologies, Temecula, CA 14-444
Nature of the assay: PKC assay, fluorescence polarization (Example 2), PKC theta. The class given is biochemical. To be noted: 5 μM ATP. The gist of the method:
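Phosphorylated peptide product detected by fluorescence polarization, with EDTA quench plus peptide tracer and antibody. Reaction in 20 mM HEPES pH 7.4, 5 mM MgCl2, 0.2 mM CaCl2, 1 mM DTT, 0.02% Brij-35, phosphatidylserine and dioleoyl-sn-glycerol, with 5 μM ATP and 5 μM peptide. Started with enzyme, 20 min at room temperature.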

Assay [2] relates to Human primary T cells. Nature of the assay: IL-2 ELISA, Human Primary T Cell, Anti-CD3+CD28+ (Example 3). The class given is cell-based. To be noted: Homo sapiens, T-cell, 24 h, anti-CD3+CD28 stimulation. The gist of the method:
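IL-2 was read by ELISA after stimulation on wells pre-coated with 1 ug/ml αCD3 and 5 μg/ml αCD28. Before this, 100,000 human primary T cells per well spent 1 h at 37 °C with test compound in Yssel's medium. The counter-screen replaced antibody stimulation with PMA (0.5 ng/ml final) and ionomycin (0.1 uM final).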
A general note: An ELISA detects its analyte on a solid surface through an enzyme-linked reagent.

Assay [3] deals with T2, PKC epsilon (Homo sapiens, UniProt Q02156).
T2 construct: purchased Upstate Biotechnologies, Temecula, CA 14-518
T2 sequence (Q02156 1-737): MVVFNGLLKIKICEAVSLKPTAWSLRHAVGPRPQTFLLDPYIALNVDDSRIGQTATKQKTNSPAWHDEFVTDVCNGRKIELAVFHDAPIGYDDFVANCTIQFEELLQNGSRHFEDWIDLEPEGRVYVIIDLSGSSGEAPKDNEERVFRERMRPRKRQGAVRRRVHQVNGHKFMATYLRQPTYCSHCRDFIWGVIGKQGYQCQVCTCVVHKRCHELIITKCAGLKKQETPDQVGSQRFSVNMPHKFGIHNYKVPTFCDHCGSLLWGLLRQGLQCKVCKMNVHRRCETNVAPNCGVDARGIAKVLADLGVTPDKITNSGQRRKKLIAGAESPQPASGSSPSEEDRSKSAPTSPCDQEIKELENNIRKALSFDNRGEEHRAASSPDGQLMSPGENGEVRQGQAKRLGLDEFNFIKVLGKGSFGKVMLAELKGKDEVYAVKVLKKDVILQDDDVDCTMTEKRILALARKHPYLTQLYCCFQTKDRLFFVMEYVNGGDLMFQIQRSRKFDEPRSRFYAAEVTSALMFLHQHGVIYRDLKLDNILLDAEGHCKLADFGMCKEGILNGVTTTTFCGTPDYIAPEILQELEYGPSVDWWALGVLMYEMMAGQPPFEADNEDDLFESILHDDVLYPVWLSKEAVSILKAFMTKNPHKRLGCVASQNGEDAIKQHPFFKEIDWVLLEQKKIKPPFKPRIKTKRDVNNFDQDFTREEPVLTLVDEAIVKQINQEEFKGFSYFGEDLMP
The assay is described as follows: PKC assay, fluorescence polarization (Example 2), PKC epsilon. It is filed as biochemical. The following applies: 5 μM ATP. Here is the method:
The inhibition of PKC activity was measured by monitoring the production of phosphorylated peptide by fluorescence polarization at different concentrations of the inhibitor. Reactions were carried out in 96-well plate format with a total volume of 20 μL containing 20 mM HEPES, pH 7.4, 5 mM MgCl2, 0.2 mM CaCl2, 1 mM DTT, 0.02% Brij-35, 0.1 mg/mL phosphatidylserine, 0.02 mg/mL dioleoyl-sn-glycerol and 5 μM each of ATP and the peptide substrate. Compounds were first diluted serially in DMSO and then transferred to a solution containing the above concentrations of HEPES, MgCl2, CaCl2, DTT, and Brij-35 to yield 5× compound solutions in 2% DMSO, which was then added to the reaction solution. Reactions were initiated by the addition of PKC at a typical concentration as described in Table VI, and then allowed to incubate at room temperature for 20 min. At the end of this time, a combination of quench (EDTA) and detection (peptide tracer and antibody) reagents was added using the protocol of Invitrogen P2748.
Background: In fluorescence polarisation assays a small probe gives low polarisation when free and higher when bound to something large.

Structures are written as SMILES.

T1 sequence (Q04759 whole entry): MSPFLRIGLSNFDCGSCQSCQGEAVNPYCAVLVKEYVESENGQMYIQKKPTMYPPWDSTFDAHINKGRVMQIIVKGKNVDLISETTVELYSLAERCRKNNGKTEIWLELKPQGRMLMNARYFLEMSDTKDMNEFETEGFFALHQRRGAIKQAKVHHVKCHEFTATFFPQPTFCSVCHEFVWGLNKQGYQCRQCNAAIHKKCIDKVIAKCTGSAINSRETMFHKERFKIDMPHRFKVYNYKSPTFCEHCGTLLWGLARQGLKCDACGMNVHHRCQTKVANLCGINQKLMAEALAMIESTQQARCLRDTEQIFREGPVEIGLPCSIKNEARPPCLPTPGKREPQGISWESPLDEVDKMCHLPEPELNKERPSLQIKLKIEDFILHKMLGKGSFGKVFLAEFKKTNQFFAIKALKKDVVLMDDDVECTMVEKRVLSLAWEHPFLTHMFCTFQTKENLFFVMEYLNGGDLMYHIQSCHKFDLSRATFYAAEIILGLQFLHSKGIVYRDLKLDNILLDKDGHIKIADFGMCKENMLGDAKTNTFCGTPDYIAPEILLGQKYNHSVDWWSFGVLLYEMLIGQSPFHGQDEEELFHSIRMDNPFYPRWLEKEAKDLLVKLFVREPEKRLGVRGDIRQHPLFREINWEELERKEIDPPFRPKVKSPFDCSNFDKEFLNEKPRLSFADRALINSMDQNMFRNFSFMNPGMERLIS

The IC50 is the point on the concentration scale where inhibition reaches its midpoint. Turning to `CCN1C(=O)C(C)(C)Oc2cc(Nc3ncc(Br)c(NC4CC(C)(C)N(C)C(C)(C)C4)n3)ccc21` [II-128], the concentration for half-maximal inhibition (IC50) was 0.5 nM in assay [1], 80 nM in assay [2] and 202 nM in assay [3].

Turning to `CN1C(C)(C)CC(Nc2nc(Nc3ccc(-c4cccnc4)c(C(F)(F)F)c3)ncc2F)CC1(C)C` [Compound I-112], the IC50 in assay [1] turned out to be 8.91 nM; in assay [2], 73.3 nM; in assay [3] it was 25.6 nM.

For the molecule `COc1ccc(Nc2ncc(F)c(NC3CC(C)(C)N(C)C(C)(C)C3)n2)cc1C(F)(F)F` [Compound I-147], the IC50 in assay [1] was found to be 8.01 nM; in assay [2] it was 168 nM; in assay [3], 115 nM.

As for `Cc1ccc(Nc2ncc(F)c(NC3CC(C)(C)NC(C)(C)C3)n2)cc1-n1cnnn1` [Compound I-455], the IC50 in assay [1] stood at 1.3 nM; in assay [2], 70 nM; in assay [3], 8 nM.

As to `CN1C(C)(C)CC(Nc2nc(Nc3ccc(-c4ccncc4)c(C(F)(F)F)c3)ncc2F)CC1(C)C` [Compound I-96], the figures for the IC50 in assay [1], in assay [2] and in assay [3] were 4.56 nM, 177 nM and 81.7 nM, respectively.

As to `CN1C(C)(C)CC(Nc2nc(Nc3ccc(OC(F)F)c(OC(F)F)c3)ncc2F)CC1(C)C` [Compound I-344], the IC50 was 6.54 nM in assay [1], 205 nM in assay [2] and 40.7 nM in assay [3].

Take `CN1C(=O)C(C)(C)Oc2cc(Nc3ncc(F)c(NC4CC(C)(C)N(C)C(C)(C)C4)n3)ccc21` [II-34]: the IC50 in assay [1] is 15.7 nM; in assay [2], 224 nM; in assay [3], 102 nM.

Take `CCN1CCN(c2ccc(Nc3ncc(F)c(NC4CC(C)(C)N(C)C(C)(C)C4)n3)cc2C(F)(F)F)CC1` [Compound I-246]: the IC50 in assay [1] was determined as 3.37 nM; in assay [2], 117 nM; in assay [3], 9.94 nM.

As for `CSc1nnnn1-c1cccc(Nc2ncc(C#N)c(NC3CC(C)(C)NC(C)(C)C3)n2)c1` [Compound I-465], the values for the IC50 in assay [1], in assay [2] and in assay [3] were 3.4 nM, 280 nM and 115 nM, respectively.

Take `COc1cc(Nc2ncc(Cl)c(NC3CC(C)(C)N(C)C(C)(C)C3)n2)cc(OC)c1` [Compound I-340]: the IC50 in assay [1] worked out at 2.81 nM; in assay [2], 159 nM; in assay [3], 15.6 nM.

Take `CN1C(C)(C)CC(Nc2nc(Nc3ccc(C#N)c(C#N)c3)ncc2F)CC1(C)C` [Compound I-141]: the IC50 in assay [1] is 3.29 nM; in assay [2], 245 nM; in assay [3] it was 249 nM.

As for `CN1C(C)(C)CC(Nc2nc(Nc3ccc(N4CCOCC4)c(OC(F)F)c3)ncc2F)CC1(C)C` [Compound I-235], the IC50 in assay [1] came to 1.27 nM; in assay [2] it was 156 nM; in assay [3] it was 16.8 nM.

For `CN1C(C)(C)CC(Nc2nc(Nc3cccc(-n4cnnn4)c3)ncc2F)CC1(C)C` [Compound I-357], the IC50 came out at 5.11 nM in assay [1], 67.6 nM in assay [2] and 7.11 nM in assay [3].

On to `CN1C(C)(C)CC(Nc2nc(Nc3ccc(-c4ccoc4)c(F)c3)ncc2F)CC1(C)C` [Compound I-119], for which the IC50 in assay [1] is 55.3 nM; in assay [2], 309 nM; in assay [3] it was 27.8 nM.

Regarding `CCN1C(=O)C(F)(F)Oc2cc(Nc3ncc(F)c(NC4CC(C)(C)N(C)C(C)(C)C4)n3)ccc21` [II-31], the IC50 in assay [1] was 1.35 nM; in assay [2], 26.4 nM; in assay [3] it was 27.1 nM.

With `COc1ccc(Nc2ncc(F)c(NC3CC(C)(C)NC(C)(C)C3)n2)cc1OC(F)F` [Compound I-444], the IC50 in assay [1] was 1.1 nM; in assay [2] it was 180 nM; in assay [3] it was 157 nM.

Turning to `CC1(C)CC(Nc2nc(Nc3ccc4c(c3)OCC(=O)N4CCF)ncc2C#N)CC(C)(C)N1` [II-171], the figures for the IC50 in assay [1], in assay [2] and in assay [3] were 2.4 nM, 260 nM and 775 nM, respectively.

Regarding `CN1C(C)(C)CC(Nc2nc(Nc3ccc(N4CCCC4)c(C#N)c3)ncc2F)CC1(C)C` [Compound I-200], the IC50 in assay [1] was determined as 1.11 nM; in assay [2] it was 185 nM; in assay [3], 41.9 nM.

On to `COc1cc(Nc2ncc(F)c(NC3CC(C)(C)N(C)C(C)(C)C3)n2)cc(-n2cnnn2)c1` [Compound I-342], for which the values for the IC50 in assay [1], in assay [2] and in assay [3] were 0.95 nM, 31.8 nM and 1.57 nM, respectively.

`COc1cc(Nc2ncc(C#N)c(NC3CC(C)(C)N(C)C(C)(C)C3)n2)cc(OC)c1` [Compound I-364]: the IC50 in assay [1] worked out at 4.1 nM; in assay [2], 270 nM; in assay [3], 27.8 nM.

With `COc1cc(Nc2ncc(C(F)(F)F)c(NC3CC(C)(C)N(C)C(C)(C)C3)n2)cc(OC)c1` [Compound I-363], the IC50 in assay [1] was 4.17 nM; in assay [2] it was 233 nM; in assay [3] it was 54.8 nM.

For `CN1C(C)(C)CC(Nc2nc(Nc3cccc(-c4ccoc4)c3)ncc2F)CC1(C)C` [Compound I-105], the IC50 turned out to be 26 nM in assay [1], 221 nM in assay [2] and 154 nM in assay [3].

Take `CN1C(C)(C)CC(Nc2nc(Nc3cccc(Br)c3)ncc2F)CC1(C)C` [Compound I-104]: the results for the IC50 in assay [1], in assay [2] and in assay [3] were 15.8 nM, 79.8 nM and 62.8 nM, respectively.

Take `CSc1nnnn1-c1cccc(Nc2ncc(C(N)=O)c(NC3CC(C)(C)N(C)C(C)(C)C3)n2)c1` [Compound I-456]: the IC50 was found to be 6.3 nM in assay [1], 350 nM in assay [2] and 49 nM in assay [3].

As to `Cc1ccc(Nc2ncc(C#N)c(NC3CC(C)(C)N(C)C(C)(C)C3)n2)cc1-n1cnnn1` [Compound I-459], the IC50 in assay [1] was determined as 0.3 nM; in assay [2], 50 nM; in assay [3], 22 nM.

As to `CN1C(C)(C)CC(Nc2nc(Nc3cc(Cl)cc(Cl)c3)ncc2F)CC1(C)C` [Compound I-103], the IC50 turned out to be 50.4 nM in assay [1], 129 nM in assay [2] and 413 nM in assay [3].

Turning to `CN1C(C)(C)CC(Nc2nc(Nc3ccc(Cl)c(C#N)c3)ncc2Cl)CC1(C)C` [Compound I-165], the IC50 in assay [1] is 2.56 nM; in assay [2] it was 292 nM; in assay [3], 311 nM.

`Cc1ccc(Nc2ncc(F)c(NC3CC(C)(C)N(C)C(C)(C)C3)n2)cc1-c1ccncc1` [Compound I-187]: the results for the IC50 in assay [1], in assay [2] and in assay [3] were 4.92 nM, 305 nM and 51 nM, respectively.

As for `COc1ccc(Nc2ncc(C#N)c(NC3CC(C)(C)N(C)C(C)(C)C3)n2)cc1-n1c(C)ccc1C` [Compound I-376], the figures for the IC50 in assay [1], in assay [2] and in assay [3] were 0.4 nM, 260 nM and 935 nM, respectively.

For the molecule `CSc1nnnn1-c1cccc(Nc2ncc(F)c(NC3CC(C)(C)NC(C)(C)C3)n2)c1` [Compound I-416], the IC50 in assay [1] turned out to be 3.3 nM; in assay [2], 80 nM; in assay [3], 13 nM.

In the case of `Cc1cc(Nc2ncc(F)c(NC3CC(C)(C)N(C)C(C)(C)C3)n2)ccc1-c1ccoc1` [Compound I-122], the IC50 in assay [1] turned out to be 60.7 nM; in assay [2], 295 nM; in assay [3] it was 18.7 nM.

Regarding `CCN1C(=O)C(C)(C)Oc2cc(Nc3ncc(C#N)c(NC4CC(C)(C)N(C)C(C)(C)C4)n3)ccc21` [II-45], the IC50 in assay [1] amounted to 1.8 nM; in assay [2], 103 nM; in assay [3] it was 179 nM.

Consider `CN1C(C)(C)CC(Nc2nc(Nc3ccc(N4CCSCC4)c(C#N)c3)ncc2F)CC1(C)C` [Compound I-199], for which the concentration for half-maximal inhibition (IC50) in assay [1] was found to be 2.88 nM; in assay [2], 135 nM; in assay [3], 9.58 nM.

Regarding `COc1cc(Nc2ncc(C#N)c(NC3CC(C)(C)N(C)C(C)(C)C3)n2)cc(-n2nnnc2C)c1` [Compound I-365], the IC50 in assay [1] is 0.62 nM; in assay [2] it was 56.6 nM; in assay [3], 7.34 nM.

Values taken from US8993585B2, “Cyclic amine substituted pyrimidinediamines as PKC inhibitors” (Rigel Pharmaceuticals, Inc., priority 2007, dated 2015).
